SMILES strings stand for the structures. A value given as a limit tells only on which side of the number the result lay.

Results on 10 compounds are retold here after patent US20260015350A1, “AZAQUINAZOLINE PAN-KRAS INHIBITORS” (Mirati Therapeutics, Inc., priority 2022, published 2026).

In test [1] the test system is KRas-mediated phosphorylation of ERK in HCT116 cells. In words: Inhibition of KRas-mediated phosphorylation of ERK (Cisbio HTRF pERK), HCT116 cells. As to conditions: Homo sapiens; for IC50: HCT-116, HTRF pERK; for inhibition at 0.1 µM: HCT-116, 3 h, single point, 100 nM compound, 3 hrs. The class given is cell-based. As to the method: (§1) Inhibition of KRas Phosphorylation of ERK (HTRF) by Exemplary Compounds of Formula (I) Cisbio HTRF Advanced PERK Assay Catalog #64[…] […] Add 10 mL of media to stop trypsinizing. Pipette the cells into a conical bottom 50 mL centrifuge tube and centrifuge 5 min×1000 rpm. […] Re-suspend the cell pellet in media, take a cell count, and then adjust the cell density using fresh media. […] Seed 6,000 cells into cell culture plate with 50 μL media. […] Use Tecan to complete the compound addition. Compounds start from 10 uM top, 3-fold dilution, and 10 doses. The final DMSO concentration is 0.8%. Dispensed 0.2 uM Trametinib as Min control. […] Incubate cell plate for 3 hrs in the incubator. […] Dilute 1 volume of 4× lysis buffer with 3 volumes of deionized water. […] Keep lysis buffer on the ice. […] At the end of the compound treatment, flick-off the media. […] Add 35 μL of lysis buffer per well using a Multidrop Combi. Then place on a plate agitator shaking at 300 rpm at 4° C. for 40 mins. […] Make up the HTRF antibody buffer. For each assay plate, mix 50 μL of d2-conjugate antibody with 950 μL of detection buffer. Similarly, mix 50 μL of Cryptate antibody with 950 μL of detection buffer. Then mix the two diluted antibodies together. […] Dispense 3.4 μL the antibody buffer to wells of an empty assay plate. Seal the plate and centrifuge plate 30 sec×1000 rpm. […] At the end of the 4° C. lysis, centrifuge the lysate plates 3 mins×1500 rpm. […] Use the Bravo to transfer 13.6 μL of lysate from cell culture plate to assay plate. Then incubate assay plate for 2 hrs at room temperature. 8. At the end of incubation, read plate on the Envision after centrifuging plate 30 sec×1000 rpm.

Test [2] concerns KRas-mediated phosphorylation of ERK in H460 cells. In words: Inhibition of KRas-mediated phosphorylation of ERK (Cisbio HTRF pERK), H460 cells. It counts as cell-based. The note with it: Homo sapiens; for IC50: NCI-H460, HTRF pERK; for inhibition at 0.1 µM: NCI-H460, 3 h, single point, 100 nM compound, 3 hrs. As to the method:
as §1

The test system of test [3] is KRas-mediated phosphorylation of ERK in A549 cells. In words: Inhibition of KRas-mediated phosphorylation of ERK (Cisbio HTRF pERK), A549 cells. The class given is cell-based. As to conditions: Homo sapiens; for IC50: HTRF pERK; for inhibition at 0.1 µM: A549, 3 h, single point, 100 nM compound, 3 hrs. As to the method:
as §1
On the technique in general: Time-resolved FRET reads energy transfer from a long-lived donor to a nearby acceptor.

The test system of test [4] is KRas-mediated phosphorylation of ERK in AsPC-1 cells. Nature of the test: Inhibition of KRas-mediated phosphorylation of ERK (Cisbio HTRF pERK), AsPC-1 cells. The class given is cell-based. The note with it: Homo sapiens, ASPC1, AsPC-1 cells; HTRF pERK. The method, boiled down:
(§2)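 H358, H727, H460 and AsPC-1 cells seeded at 6,000/well, treated 3 hrs with 10-dose 3-fold dilutions from 10 uM (0.8% DMSO); 0.2 uM trametinib as min control. Lysed 40 min at 4° C; lysate incubated 2 hrs at room temperature with d2/cryptate antibodies, HTRF read.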

Test [5] deals with KRas-mediated phosphorylation of ERK in H727 cells. In words: Inhibition of KRas-mediated phosphorylation of ERK (Cisbio HTRF pERK), H727 cells. It counts as cell-based. The note with it: Homo sapiens, NCI-H727, H727 cells; HTRF pERK. The method, boiled down:
as §2

Test [6] has as its target T1, KRas^G12D (Homo sapiens, UniProt P01116, G12D).
T1 construct: Biotinylated KRas (corresponding to amino acids 1-169, produced at Accelegan Inc.); biotin (biotinylated); purchased Accelegan Inc
Nature of the test: KRas binding assay (TR-FRET tracer displacement), KRas G12D.

Test [7] concerns the target T2, KRas^G12V (Homo sapiens, UniProt P01116, G12V).
T2 construct: Biotinylated KRas (corresponding to amino acids 1-169, produced at Accelegan Inc.); biotin (biotinylated); purchased Accelegan Inc
In words: KRas binding assay (TR-FRET tracer displacement), KRas G12V.

The subject of test [8] is KRas-mediated phosphorylation of ERK in H358 cells. In words: Inhibition of KRas-mediated phosphorylation of ERK (Cisbio HTRF pERK), H358 cells. It counts as cell-based. As to conditions: Homo sapiens; for inhibition at 0.1 µM: NCI-H358, 3 h, single point, 100 nM compound, 3 hrs; for IC50: NCI-H358, HTRF pERK. Here is the method:
as §1

In test [9] the target is T3, KRas^G12R (Homo sapiens, UniProt P01116, G12R).
T3 construct: Biotinylated KRas (corresponding to amino acids 1-169, produced at Accelegan Inc.); biotin (biotinylated); purchased Accelegan Inc
In words: KRas binding assay (TR-FRET tracer displacement), KRas G12R.

T2 sequence (P01116 1-169 isoform P01116-2 G12V): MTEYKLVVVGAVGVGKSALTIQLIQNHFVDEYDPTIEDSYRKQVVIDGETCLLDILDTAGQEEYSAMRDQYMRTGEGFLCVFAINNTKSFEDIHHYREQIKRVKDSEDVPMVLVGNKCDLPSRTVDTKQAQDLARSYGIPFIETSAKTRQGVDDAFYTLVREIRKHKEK
T1 sequence (P01116 1-169 isoform P01116-2 G12D): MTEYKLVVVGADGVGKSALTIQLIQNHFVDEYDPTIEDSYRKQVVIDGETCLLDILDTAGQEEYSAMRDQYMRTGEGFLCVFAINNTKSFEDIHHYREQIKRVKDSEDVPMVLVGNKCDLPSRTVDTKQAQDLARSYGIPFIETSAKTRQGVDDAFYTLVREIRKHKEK
T3 sequence (P01116 1-169 isoform P01116-2 G12R): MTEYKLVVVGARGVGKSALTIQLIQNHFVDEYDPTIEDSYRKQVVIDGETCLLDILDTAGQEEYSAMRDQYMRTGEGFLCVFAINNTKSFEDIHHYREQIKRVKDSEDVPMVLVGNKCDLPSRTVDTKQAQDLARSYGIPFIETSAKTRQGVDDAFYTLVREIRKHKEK

As a reminder, the IC50 is the point on the concentration scale where inhibition reaches its midpoint. The low end stands for greater potency in that assay, the high end for weaker potency in that assay. Regarding `CCc1c(F)ccc2cc(O)cc(-c3ncc4c(N5CCC[C@H](C)C5)nc(OC[C@@]56CCCN5C[C@H](F)C6)nc4c3F)c12` [Example 541, 5-ethyl-6-fluoro-4-(8-fluoro-2-(((2R,7aS)-2-fluorohexahydro-1H-pyrrolizin-7a-yl)methoxy)-4-((S)-3-methylpiperidin-1-yl)pyrido[4,3-d]pyrimidin-7-yl)naphthalen-2-ol], the IC50 was found to be 208 nM in test [1]; 107 nM in test [2]; 216 nM in [3]; 198 nM in test [4]; 240 nM in [5].

The term inhibition denotes the drop in the measured response relative to a control, in per cent. Regarding `CCc1c(F)ccc2cc(O)cc(-c3ncc4c(N5CCCC6(CCC6)C5)nc(OC[C@@]56CCCN5C[C@H](F)C6)nc4c3F)c12` [Example 549, 5-ethyl-6-fluoro-4-(8-fluoro-2-(((2R,7aS)-2-fluorotetrahydro-1H-pyrrolizin-7a(5H)-yl)methoxy)-4-(6-azaspiro[3.5]nonan-6-yl)pyrido[4,3-d]pyrimidin-7-yl)naphthalen-2-ol], the IC50 in [6] came to 7 nM; in [7], 4 nM; in [4], 328 nM; in test [9], 8 nM; in test [5], 208 nM. Besides, the results for the inhibition at 0.1 µM in test [8] and in test [3] were 3% and -6%, respectively.

Regarding `CCc1c(F)ccc2cc(O)cc(-c3ncc4c(NCC5(C)CC(=O)NC5=O)nc(OC[C@@]56CCCN5C[C@H](F)C6)nc4c3F)c12` (stereo partly drawn) [Example 566, 3-(((7-(8-ethyl-7-fluoro-3-hydroxynaphthalen-1-yl)-8-fluoro-2-(((2R,7aS)-2-fluorotetrahydro-1H-pyrrolizin-7a(5H)-yl)methoxy)pyrido[4,3-d]pyrimidin-4-yl)amino)methyl)-3-methylpyrrolidine-2,5-dione], the IC50 was determined as 72 nM in test [1]; 47 nM in [2]; 3 nM in [6]; 3 nM in test [7]; 130 nM in test [3]; 760 nM in [4]. The IC50 in [9] was under 2 nM; in test [5] it was 138 nM.

For the compound `CCc1c(F)ccc2cc(O)cc(-c3ncc4c(N5CCOCC6(CCO6)C5)nc(OC[C@@]56CCCN5C[C@H](F)C6)nc4c3F)c12` (stereo partly drawn) [Example 573, 5-ethyl-6-fluoro-4-(8-fluoro-2-(((2R,7aS)-2-fluorotetrahydro-1H-pyrrolizin-7a(5H)-yl)methoxy)-4-(1,6-dioxa-9-azaspiro[3.6]decan-9-yl)pyrido[4,3-d]pyrimidin-7-yl)naphthalen-2-ol], the inhibition at 0.1 µM in [1] was found to be 53%; in [2] it was 92%; in [8], 94%; in test [3] it was 62%. Further, the figures for the IC50 in test [4] and in test [5] were 12 nM and 15 nM, respectively.

In the case of `CCc1c(F)ccc2cc(O)cc(-c3ncc4c(N5CC6COCC(CO)(C5)C6(F)F)nc(OC[C@@]56CCCN5C[C@H](F)C6)nc4c3F)c12` (stereo partly drawn) [Example 645, 4-(4-(9,9-difluoro-1-(hydroxymethyl)-3-oxa-7-azabicyclo[3.3.1]nonan-7-yl)-8-fluoro-2-(((2R,7aS)-2-fluorotetrahydro-1H-pyrrolizin-7a(5H)-yl)methoxy)pyrido[4,3-d]pyrimidin-7-yl)-5-ethyl-6-fluoronaphthalen-2-ol], the inhibition at 0.1 µM in test [1] amounted to 6%; in test [2], 4%. In addition, the IC50 in test [6] stood at 313 nM; in test [7], 139 nM; in [4] it was 4640 nM; in test [9], 257 nM; in test [5] it was 3720 nM.

In the case of `CCc1c(F)ccc2cc(O)cc(-c3ncc4c(N5CCCn6nc(P(C)(C)=O)cc6C5)nc(OC[C@@]56CCCN5C[C@H](F)C6)nc4c3F)c12` [Example 660, (5-(7-(8-ethyl-7-fluoro-3-hydroxynaphthalen-1-yl)-8-fluoro-2-(((2R,7aS)-2-fluorohexahydro-1H-pyrrolizin-7a-yl)methoxy)pyrido[4,3-d]pyrimidin-4-yl)-5,6,7,8-tetrahydro-4H-pyrazolo[1,5-a][1,4]diazepin-2-yl)dimethylphosphine oxide], the IC50 in [6] was 2 nM; in test [7], 7 nM; in [4], 8030 nM; in [9], 2 nM; in test [5] it was over 10000 nM. Besides, the inhibition at 0.1 µM in test [8] was -20%; in [3] it was -41%.

On to `C=C1CN2CCC[C@@]2(COc2nc(N3C[C@@H]4C[C@H](C3)[C@H](O)C4)c3cnc(-c4cc(O)cc5ccc(F)c(CC)c45)c(F)c3n2)C1` [Example 896, (1R,5R,6R)-3-(7-(8-ethyl-7-fluoro-3-hydroxynaphthalen-1-yl)-8-fluoro-2-(((S)-2-methylenetetrahydro-1H-pyrrolizin-7a(5H)-yl)methoxy)pyrido[4,3-d]pyrimidin-4-yl)-3-azabicyclo[3.2.1]octan-6-ol], for which the IC50 in test [8] was 1 nM; in [3], 1 nM; in test [4] it was 6 nM; in [5], 2 nM.

On to `C=C1CN2CCC[C@]2(COc2nc(N3C[C@@H]4C[C@H](C3)[C@H](O)C4)c3cnc(-c4cc(O)cc5ccc(F)c(CC)c45)c(F)c3n2)C1` [Example 897, (1R,5R,6R)-3-(7-(8-ethyl-7-fluoro-3-hydroxynaphthalen-1-yl)-8-fluoro-2-(((R)-2-methylenetetrahydro-1H-pyrrolizin-7a(5H)-yl)methoxy)pyrido[4,3-d]pyrimidin-4-yl)-3-azabicyclo[3.2.1]octan-6-ol], for which the half-inhibitory concentration (IC50) in test [8] came to 3 nM; in test [3] it was 5 nM; in [4], 32 nM; in [5], 12 nM.

`CCc1c(F)ccc2cc(O)cc(-c3ncc4c(N5CC6CCC(CC(=O)NC)(C6)C5)nc(OC[C@@]56CCCN5C[C@H](F)C6)nc4c3F)c12` (stereo partly drawn) [Example 914, 2-(3-(7-(8-ethyl-7-fluoro-3-hydroxynaphthalen-1-yl)-8-fluoro-2-(((2R,7aS)-2-fluorotetrahydro-1H-pyrrolizin-7a(5H)-yl)methoxy)pyrido[4,3-d]pyrimidin-4-yl)-3-azabicyclo[3.2.1]octan-1-yl)-N-methylacetamide]: the IC50 was determined as 12 nM in [6]; 3 nM in [7]; 461 nM in test [8]; 2380 nM in test [4]; 5 nM in [9]; 1040 nM in test [5].

In the case of `C[C@@]1(O)CCCN(c2nc(OCC34CCCN3CCC4)nc3c(F)c(-c4ccc(F)c5sc(N)c(C#N)c45)ncc23)C1` [Example 916, (R)-2-amino-7-fluoro-4-(8-fluoro-4-(3-hydroxy-3-methylpiperidin-1-yl)-2-((tetrahydro-1H-pyrrolizin-7a(5H)-yl)methoxy)pyrido[4,3-d]pyrimidin-7-yl)benzo[b]thiophene-3-carbonitrile], the concentration for half-maximal inhibition (IC50) in test [6] was 78 nM; in test [7], 120 nM; in test [8], 8970 nM; in test [4], over 10000 nM; in [9] it was 132 nM; in [5], over 10000 nM.
